US20250346585A1 (Alexion Pharmaceuticals, Inc., priority 2022, published 2025)
Read-outs that look alike come from different tables or passages of the source.

Molecular target: Human complement C1s enzyme (Homo sapiens (Human), UniProt P09871)
Test: Human C1s enzyme assay
Type: biochemical
Settings: read-out: IC50 (Stars)
In short: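 Purified serum-derived human C1s (1.16 nM final) preincubated 5 min at room temperature with compound in 50 mM Tris, 1 M NaCl, pH 7.5. Z-L-Lys-SBzl thioester substrate and DTNB added (100 μM each, final); A405 read every 30 s for 30 min. IC50 from nonlinear regression of reaction rates against compound concentration.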

[1] = Human complement C1s enzyme 1.16 nM, substrate Z-L-Lys-SBzl 100 μM, assay of Example 3
[2] = Human C1s enzyme assay of Example 3

Sequence of Human complement C1s enzyme (P09871 438-688 limits assumed): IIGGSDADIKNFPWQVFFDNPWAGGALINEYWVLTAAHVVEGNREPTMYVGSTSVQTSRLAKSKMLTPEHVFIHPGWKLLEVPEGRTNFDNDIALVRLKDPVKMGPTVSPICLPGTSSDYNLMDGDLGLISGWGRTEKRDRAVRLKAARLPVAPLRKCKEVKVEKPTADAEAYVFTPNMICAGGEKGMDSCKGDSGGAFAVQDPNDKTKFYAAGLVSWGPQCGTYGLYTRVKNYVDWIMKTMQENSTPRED
Sequence of Human complement C1s enzyme (P09871 16-437 partner limits assumed): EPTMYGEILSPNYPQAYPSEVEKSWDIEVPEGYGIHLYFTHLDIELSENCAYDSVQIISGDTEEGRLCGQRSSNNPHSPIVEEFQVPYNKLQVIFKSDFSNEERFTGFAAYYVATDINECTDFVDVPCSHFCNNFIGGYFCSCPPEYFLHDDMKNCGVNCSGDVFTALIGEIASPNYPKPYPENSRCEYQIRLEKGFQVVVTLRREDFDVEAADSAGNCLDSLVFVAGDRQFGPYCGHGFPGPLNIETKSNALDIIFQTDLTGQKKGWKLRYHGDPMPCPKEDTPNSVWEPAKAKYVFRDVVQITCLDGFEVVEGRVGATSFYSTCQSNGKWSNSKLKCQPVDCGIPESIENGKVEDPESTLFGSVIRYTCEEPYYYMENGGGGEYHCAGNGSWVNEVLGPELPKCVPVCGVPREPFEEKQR

Compound | IC50 [1] [nM] | IC50 [2] [nM] | also measured
O=C(NCC(=O)N1CC2(C[C@H]1C(=O)NCc1cc(NCCO)cs1)OCCO2)c1ccc(Oc2ccc(F)cc2)cc1 [Compound 308, (S)-7-((4-(4-fluorophenoxy)benzoyl)glycyl)-N-((4-((2-hydroxyethyl)amino)thiophen-2-yl)methyl)-1,4-dioxa-7-azaspiro[4.4]nonane-8-carboxamide] | > 1000 |  | 
C[C@@H](NC(=O)[C@@H]1C[C@@H](OC(F)F)CN1C(=O)CNC(=O)c1ccc2sc3ccccc3c2c1)c1cc(C(=N)N)cs1 [Compound 353, (2S,4R)—N—((R)-1-(4-carbamimidoylthiophen-2-yl)ethyl)-1-((dibenzo[b,d]thiophene-2-carbonyl)glycyl)-4-(difluoromethoxy)pyrrolidine-2-carboxamide] | < 100 |  | 
C[C@@H](NC(=O)[C@@H]1C[C@]2(CO)C[C@@H]2N1C(=O)CNC(=O)c1ccc(Oc2ccc(F)cc2)cc1)c1ccc(C(=N)N)s1 [Compound 41, (1S,3S,5R)—N—((R)-1-(5-carbamimidoylthiophen-2-yl)ethyl)-2-((4-(4-fluorophenoxy)benzoyl)glycyl)-5-(hydroxymethyl)-2-azabicyclo[3.1.0]hexane-3-carboxamide] |  | < 100 | 
CO[C@@H]1C[C@@H](C(=O)N[C@H](C)c2cc(C(=N)N)cs2)N(C(=O)CNC(=O)c2ccc3oc4ccccc4c3c2)C1 [Compound 221, (2S,4R)—N—((R)-1-(4-carbamimidoylthiophen-2-yl)ethyl)-1-((dibenzo[b,d]furan-2-carbonyl)glycyl)-4-methoxypyrrolidine-2-carboxamide] | < 100 |  | 
N=C(N)c1cc(CNC(=O)[C@@H]2CC3(CN2C(=O)CNC(=O)c2ccc(-c4ccccc4)cc2)OCCO3)cs1 [Compound 147, (S)-7-(([1,1′-biphenyl]-4-carbonyl)glycyl)-N-((5-carbamimidoylthiophen-3-yl)methyl)-1,4-dioxa-7-azaspiro[4.4]nonane-8-carboxamide] |  | < 100 | 
C[C@@H](NC(=O)[C@@H]1CC2(CN1C(=O)CNC(=O)c1ccc(-c3ccccc3)cc1)OCCO2)c1cc(C(=N)N)cs1 [Compound 90, (S)-7-(([1,1′-biphenyl]-4-carbonyl)glycyl)-N—((R)-1-(4-carbamimidoylthiophen-2-yl)ethyl)-1,4-dioxa-7-azaspiro[4.4]nonane-8-carboxamide] |  | < 100 | 
Cc1c2ccccc2cc2cc(C(=O)NCC(=O)N3CC4(C[C@H]3C(=O)N[C@H](C)c3cc(C(=N)N)cs3)OCCO4)ccc12 [Compound 325, (S)—N—((R)-1-(4-carbamimidoylthiophen-2-yl)ethyl)-7-((10-methylanthracene-2-carbonyl)glycyl)-1,4-dioxa-7-azaspiro[4.4]nonane-8-carboxamide] | < 100 |  | 
C[C@H]1C[C@@H](C(=O)N[C@H](C)c2cc(C(=N)N)cs2)N(C(=O)CNC(=O)c2ccc3c(c2)-c2ccccc2C3(F)F)C1 [Compound 46, (2S,4S)—N—((R)-1-(4-carbamimidoylthiophen-2-yl)ethyl)-1-((9,9-difluoro-9H-fluorene-3-carbonyl)glycyl)-4-methylpyrrolidine-2-carboxamide] |  | < 100 | 
C[C@@H](NC(=O)[C@@H]1C[C@@H](S(C)(=O)=O)CN1C(=O)CNC(=O)c1ccc2c(c1)S(=O)(=O)c1ccccc1-2)c1cc(C(=N)N)cs1 [Compound 381, (2S,4R)—N—((R)-1-(4-carbamimidoylthiophen-2-yl)ethyl)-1-((5,5-dioxidodibenzo[b,d]thiophene-3-carbonyl)glycyl)-4-(methylsulfonyl) pyrrolidine-2-carboxamide] | < 100 |  | 
C[C@@H](NC(=O)[C@@H]1C[C@@H](S(C)(=O)=O)CN1C(=O)CNC(=O)c1cccc(-c2ccc(F)cc2)c1)c1cc(C(=N)N)cs1 [Compound 334, (2S,4R)—N—((R)-1-(4-carbamimidoylthiophen-2-yl)ethyl)-1-((4′-fluoro-[1,1′-biphenyl]-3-carbonyl)glycyl)-4-(methylsulfonyl)pyrrolidine-2-carboxamide] | < 100 |  | 
C[C@@H](NC(=O)[C@@H]1C[C@@H](S(C)(=O)=O)CN1C(=O)CNC(=O)c1ccc2c(c1)oc1ccccc12)c1cc(C(=N)N)cs1 [Compound 379, (2S,4R)—N—((R)-1-(4-carbamimidoylthiophen-2-yl)ethyl)-1-((dibenzo[b,d]furan-3-carbonyl)glycyl)-4-(methylsulfonyl)pyrrolidine-2-carboxamide] | < 100 |  | 
COC[C@@]1(F)C[C@@H](C(=O)N[C@H](C)c2cc(C(=N)N)cs2)N(C(=O)CNC(=O)c2ccc(Oc3ccc(C(F)(F)F)cc3)cc2)C1 [Compound 18, (2S,4R)—N—((R)-1-(4-carbamimidoylthiophen-2-yl)ethyl)-4-fluoro-4-(methoxymethyl)-1-((4-(4-(trifluoromethyl)phenoxy)benzoyl)glycyl)pyrrolidine-2-carboxamide] |  | < 100 | 
C[C@@H](NC(=O)[C@@H]1CC2(CN1C(=O)CN1Cc3cc(-c4ccc(F)cc4F)ccc3C1=O)OCCO2)c1cc(C(=N)N)cs1 [Compound 366] | < 100 |  | 
Cc1cccc(C)c1-c1ccc(C(=O)NCC(=O)N2CC3(C[C@H]2C(=O)NCc2cc(C(=N)N)cs2)OCCO3)cc1 [Compound 197, (S)—N-((4-carbamimidoylthiophen-2-yl)methyl)-7-((2′,6′-dimethyl-[1,1′-biphenyl]-4-carbonyl)glycyl)-1,4-dioxa-7-azaspiro[4.4]nonane-8-carboxamide] |  | < 100 | 
C[C@@H](NC(=O)[C@@H]1C[C@@H](c2ccccc2)CN1C(=O)CNC(=O)c1ccc2c(c1)-c1ccccc1C2(F)F)c1cc(C(=N)N)cs1 [Compound 81, (2S,4S)—N—((R)-1-(4-carbamimidoylthiophen-2-yl)ethyl)-1-((9,9-difluoro-9H-fluorene-3-carbonyl)glycyl)-4-phenylpyrrolidine-2-carboxamide] |  | < 100 | 
O=C(NCC(=O)N1CC2(C[C@H]1C(=O)NCc1cc(-c3cc(C(F)(F)F)[nH]n3)cs1)OCCO2)c1ccc(Oc2ccc(F)cc2)cc1 [Compound 76, (S)-7-((4-(4-fluorophenoxy)benzoyl)glycyl)-N-((4-(5-(trifluoromethyl)-1H-pyrazol-3-yl)thiophen-2-yl)methyl)-1,4-dioxa-7-azaspiro[4.4]nonane-8-carboxamide] |  | > 1000 | 
C[C@@H](NC(=O)[C@@H]1C[C@@H](OC(F)F)CN1C(=O)CNC(=O)c1ccc2c(c1)-c1ccccc1C2(F)F)c1cc(C(=N)N)cs1 [Compound 9, (2S,4R)—N—((R)-1-(4-carbamimidoylthiophen-2-yl)ethyl)-1-((9,9-difluoro-9H-fluorene-3-carbonyl)glycyl)-4-(difluoromethoxy)pyrrolidine-2-carboxamide] |  | < 100 | 
C[C@@H](NC(=O)[C@@H]1CC2(CN1C(=O)CNC(=O)c1ccc3cc4ccccc4nc3c1)OCCO2)c1cc(C(=N)N)cs1 [Compound 331, (S)-7-((acridine-3-carbonyl)glycyl)-N—((R)-1-(4-carbamimidoylthiophen-2-yl)ethyl)-1,4-dioxa-7-azaspiro[4.4]nonane-8-carboxamide] | < 100 |  | 
C[C@@H](NC(=O)[C@@H]1C[C@](F)(CF)CN1C(=O)CNC(=O)c1ccc2c(c1)C(F)(F)c1ccccc1-2)c1cc(C(=N)N)cs1 [Compound 263, (2S,4R)—N—((R)-1-(4-carbamimidoylthiophen-2-yl)ethyl)-1-((9,9-difluoro-9H-fluorene-2-carbonyl)glycyl)-4-fluoro-4-(fluoromethyl)pyrrolidine-2-carboxamide] | < 100 |  | 
C[C@@H](NC(=O)[C@@H]1C[C@]2(C)C[C@@H]2N1C(=O)CNC(=O)c1ccc(Oc2ccc(F)cc2)cc1)c1cc(C(=N)N)cs1 [Compound 16, (1S,3S,5S)—N-[(1R)-1-(4-carbamimidoylthiophen-2-yl)ethyl]-2-(2-{[4-(4-fluorophenoxy)phenyl]formamido}acetyl)-5-methyl-2-azabicyclo[3.1.0]hexane-3-carboxamide] |  | < 100 | 
N=C(N)c1csc(CNC(=O)[C@@H]2CC3(CN2C(=O)CNC(=O)c2ccc(-c4cc(F)cc(F)c4)cc2)OCCO3)c1 [Compound 189, (S)—N-((4-carbamimidoylthiophen-2-yl)methyl)-7-((3′,5′-difluoro-[1,1′-biphenyl]-4-carbonyl)glycyl)-1,4-dioxa-7-azaspiro[4.4]nonane-8-carboxamide] |  | < 100 | 
C[C@@]12C[C@@H]1N(C(=O)CNC(=O)c1ccc3c(c1)CCCO3)[C@H](C(=O)NCc1cc(C(=N)N)cs1)C2 [Compound 1, (1S,3S,5S)—N-((4-carbamimidoylthiophen-2-yl)methyl)-2-((chromane-6-carbonyl)glycyl)-5-methyl-2-azabicyclo[3.1.0]hexane-3-carboxamide] |  | < 100 | 
N=C(N)c1csc([C@@H](CO)NC(=O)[C@@H]2C[C@](F)(CF)CN2C(=O)CNC(=O)c2ccc3c(c2)-c2ccccc2C3(F)F)c1 [Compound 398, (2S,4R)—N—((R)-1-(4-carbamimidoylthiophen-2-yl)-2-hydroxyethyl)-1-((9,9-difluoro-9H-fluorene-3-carbonyl)glycyl)-4-fluoro-4-(fluoromethyl)pyrrolidine-2-carboxamide] |  |  | IC50 (Human complement C1s enzyme 1.16 nM, substrate Z-L-Lys-SBzl, assay of Example 3): < 100 nM
O=C(NCC(=O)N1CC2(C[C@H]1C(=O)NCc1cc(Nc3nccs3)cs1)OCCO2)c1ccc(Oc2ccc(F)cc2)cc1 [Compound 282, (S)-7-((4-(4-fluorophenoxy)benzoyl)glycyl)-N-((4-(thiazol-2-ylamino)thiophen-2-yl)methyl)-1,4-dioxa-7-azaspiro[4.4]nonane-8-carboxamide] | > 1000 |  | 
C[C@@H](NC(=O)[C@@H]1C[C@@H](OC(F)F)CN1C(=O)CNC(=O)c1ccc(C(F)(F)c2ccccc2)cc1)c1cc(C(=N)N)cs1 [Compound 131, (2S,4R)—N—((R)-1-(4-carbamimidoylthiophen-2-yl)ethyl)-1-((4-(difluoro(phenyl)methyl)benzoyl)glycyl)-4-(difluoromethoxy)pyrrolidine-2-carboxamide] |  | < 100 | 
